Patent publication US9072901B2, “Cardiac neuromodulation and methods of using same” (The Board of Regents of the University of Oklahoma, priority 2001, dated 2015)
No end group written: not given here.

How the values were obtained:
[1] = test system: right atrial ganglionated plexus neurons; experiment: Activity of right atrial ganglionated plexus neuron populations during epicardial chemical stimuli; format: in vivo; settings: ventricular sensory inputs
Description: Arrow indicates application of veratridine to the epicardium of the left ventricle. At baseline, note the cycling of activity with a periodicity of 20 seconds. In the unstressed condition, this bursting is usually associated with increased coordination of activity between the two populations of neurons (see bottom trace).
Sub-populations of right atrial neurons that receive afferent inputs from sensory neurites in both ventricles are responsive to local mechanical stimuli and the nitric oxide donor nitroprusside. Neurons in at least one ganglionated plexus locus were activated by epicardial application of veratridine, bradykinin, the β1-adrenoceptor agonist prenaterol or the excitatory amino acid glutamate. […] These periods of coupled activity occurred every 30-50 second during basal states, as well as when neuronal activity was enhanced by chemical activation of their ventricular sensory inputs. It has been observed that neurons throughout one intrinsic cardiac ganglionated plexus receive inputs from mechano- and chemo-sensory neurites located in both ventricles. That such neurons respond to multiple chemical stimuli, including those liberated from adjacent adrenergic efferent nerve terminals, indicates the complexity of the integrative processing of information that occurs within the intrinsic cardiac nervous system.
Intraganglionic interactions within the intrinsic cardiac nervous system depend in large part on common shared afferent inputs and/or interconnections mediated via local circuit neurons. In order to evaluate these interactions, separate populations of neurons were recorded in the ventral right atrial ganglionated plexus (RAGP) in basal states and during discrete mechanical and chemical stimuli of ventricular neurites. In basal states, the coherence of activity generated by the two populations of RAGP neurons fluctuated with a periodicity of 30-50 s and with an average peak coherence of 0.88±0.03. Coherence was increased in conjunction with the enhanced neuronal activity evoked during exposure of ventricular sensory inputs to mechanical and chemical (nitroprusside, veratridine, bradykinin, adrenergic agonists or glutamate) stimuli.

[2] = test system: canine nodose ganglion afferent neuron; experiment: Nodose ganglion afferent neuron activity after epicardial CPA; format: in vivo; settings: CPA via 1 cm×1 cm pledget on ventral left ventricular epicardium
Description: Panel B was obtained 1 minute after terminating CPA application.

[3] = test system: right atrial ganglionated plexus; experiment: ISF, aorta and coronary sinus catecholamines (microdialysis) during ANG II infusion into blood supply of the RAGP; format: in vivo, dog
Description: FIGS. 8A-8C show ISF, aorta and coronary sinus norepinephrine (NE) and epinephrine (EPI) levels in response to stellate stimulation (4 Hz), angiotensin II (ANG II) infusion (100 μM, 1 ml/min) into the blood supply for the Right Atrial Ganglionated Plexus (RAGP) and Dorsal Cord Activation (DCA, 50 Hz, 200 μsec, 90% motor threshold). ISF fluids were sampled using the microdialysis techniques summarized in Aim 3.
LV dP/dt correlated with ISF NE release. However, NE spillover into the coronary sinus occurred only during sympathetic efferent neuronal stimulation (FIG. 8C). […] This differential release of catecholamines from cardiac nerves occurred in spite of a 40-fold higher NE compared to EPI content in the dog LV myocardium (237±33 vs. 6.4±1.0 ng/g). […] Dorsal cord activation (FIG. 8B) evoked a release of EPI into the ISF equivalent to stellate stimulation, but with only a modest increase in ISF NE.

right atrial neurons = experiment: Ventricular unipolar electrograms (ST segment) with ANG II administered to right atrial neurons, ameroid constrictor chronic ischemia; format: in vivo; settings: ANG II 40 μg/min
Description: Under basal conditions, electrograms display slight ST segment displacement (panel B). Transient rapid ventricular pacing (240/min for 1 min), used to increase myocardial O2 demand, precipitates ischemic episodes. In the first beats following rapid pacing, ST segment displacement is inhomogeneously augmented in the LCx territory. Marked ST segment depression (−2 to −6 mV) occurs in some areas, whereas ST elevation (+2 to +15 mV) develops in others (panel C). […] Note that the ST changes, induced by ANG II, occurred at the apical margin of the plaque electrode, i.e., at the periphery of the LCx territory (Panel D). In contrast, the changes induced by transient rapid pacing occurred at a more central location in the LCx territory (panel C).
Note that the ST changes occurred at the apical margin of the plaque electrode (panel B). Thus, the ST segment changes are caused by direct or indirect activation of ganglionated plexus neurons that project efferent axons to the specific ventricular areas in which the changes occurred. […]
Dorsal column activation stabilizes ischemic myocardial electrical dysfunction. […] Four weeks later, under general anesthesia multiple ventricular unipolar electrograms were recorded in the normal and ischemic left ventricle during basal states and when ANG II (40 μg/min; 1 minute) was administered to right atrial neurons before and after DCA. […]

T3 neurons = experiment: T3 neuron activity with intrapericardial bradykinin and glutamate pledget on C1-C2 segments; format: in vivo, rats
Description: FIGS. 19A-19F show responses of T3 cell to chemical stimulation of glutamate before and after rostral C1 spinal transection. The responses were evoked by intrapericardial injections of bradykinin (BK). Saline was used as the control. Pledgets of glutamate placed on the C1-C2 dorsal spinal cord (B) decreased the discharge rate of the cell for the three minute period it was applied. The background activity recovered after glutamate was removed. […] The presence of glutamate attenuated this response (E). The increased rate of discharge to BK injections was again observed when glutamate was removed (F). In each panel, action potentials were recorded on a rate histogram.
Originally, it was assumed that supraspinal pathways are necessary for descending inhibitory effects of visceral afferents on sensory neurons. […] Thus, it appears that the upper cervical segments play an important role in the hierarchy that controls the efferent outflow to the intrathoracic and intrinsic cardiac nervous system. […]
Descending modulation of thoracic cardiac nociceptive transmission by upper cervical spinal neurons. […] Methods: Extracellular potentials of single T3 neurons were recorded in pentobarbital anesthetized male rats. […]

[4] = test system: intrinsic cardiac neurons; settings: direct application; cited from earlier work
[5] = test system: canine intrinsic cardiac neurons; experiment: Intracellular recording of canine intrinsic cardiac neurons in vitro, ACh pulse with or without hexamethonium; format: cell-based; settings: hexamethonium 100 μM for 5 min in perfusate
Description: The horizontal bar under the traces indicates application of a 10 ms pulse of ACh (1 mM) from the tip of a pipette placed near the ganglion. A, CONTROL. […] DCX. […] During the repolarization phase, the membrane potential began to oscillate with APs being discharged on oscillatory peaks. […] DCX. […] The bursting of activity is reflective of the enhanced muscarinic receptor-mediated responses of these neurons.
Intrinsic cardiac neurons remain responsive to cholinergic synaptic inputs. The cholinergic receptor systems are differentially affected by disruption of nerve inputs to the ICN, with muscarinic responsiveness being enhanced (FIG. 9). Non-cholinergic neurotransmitters can modulate the activity of these neurons. FIG. 10 illustrates the interaction between acetylcholine and the peptide, substance P.

intracardiac neuron = experiment: Inhibition of ACh-evoked responses by substance P, intracellular recording; format: cell-based; settings: bath application of 10 μM substance P; 28 ms puffs of ACh 10 mM
Description: Local application of ACh evoked action potentials. These ACh evoked potentials were blocked during bath application of 10 μM substance P (see horizontal bar).

[6] = test system: intrinsic cardiac neurons; experiment: Activity generated by right atrial (intrinsic cardiac) neurons recorded in situ in anesthetized dogs; format: in vivo, dog; settings: for enhancement of intrinsic cardiac neuronal activity: epicardial veratridine 7.5 μM

## CC(C)(C)NCC(O)c1cc(O)cc(O)c1 (centres unmarked) [terbutaline]
[1]
  neuronal response to epicardial application: inconsistent neuronal responses

## OC[C@H]1O[C@@H](n2cnc3c(NC4CCCC4)ncnc32)[C@H](O)[C@@H]1O [CPA]
[2]
  activity generated by nodose ganglion afferent neuron: enhancement of the activity

## angiotensin II (DRVYIHPF; Angiotensin-2; UniProt P01019 25-32, looked up) [ANG II]
[3]; ANG II 100 μM, 1 ml/min into RAGP blood supply, anesthetized dog
  NE concentration in the cardiac interstitial fluid (ISF): to the same extent as achieved during electrical stimulation of the stellate ganglia
[3]; ANG II stimulation
  EPI spillover into the coronary sinus: Neither stellate nor ANG II stimulation evoked EPI spillover
Right atrial neurons; ischemic ventricle, 1 minute
  regional ST segment changes: increased the area and magnitude
Right atrial neurons; normal myocardium
  electrical behavior: minimal changes
[1]
  neuronal response to epicardial application: inconsistent neuronal responses

## N[C@@H](CCC(=O)O)C(=O)O [glutamate]
T3 neurons; after transection at the rostral C1 spinal cord
  spontaneous activity of T3 neurons and excitatory inputs from cardiac sensory neurons: still reduced
T3 neurons; glutamate pledget 1 M, 1-3 min, on C1-C2
  T3 neurons in which spontaneous activity and/or excitatory responses to intrapericardial bradykinin were inhibited: 77%
[1]
  neuronal response to epicardial application: activated

## CC(C)NC[C@H](O)COc1ccc(O)cc1 [prenaterol]
[1]
  neuronal response to epicardial application: activated

## NC[C@H](O)c1ccc(O)c(O)c1 [norepinephrine]
[4]
  identified intrinsic cardiac neurons whose properties are modified: about 25%

## C[N+](C)(C)CCCCCC[N+](C)(C)C [Hexamethonium]
[5]; CONTROL neuron
  ACh-induced depolarization: reduced the amplitude of ACh-induced depolarization relative to the control state; no APs were generated
[5]; DCX neuron
  ACh-induced depolarization: reduced the amplitude of ACh-induced depolarization; AP discharge was facilitated

## substance P (RPKPQQFFGLM-NH2; ends and bridges not checked; UniProt P20366 58-68, looked up)
Intracardiac neuron
  ACh evoked potentials: blocked

## COc1ccc(C(=O)O[C@H]2CC[C@@]3(C)[C@@H]4CC[C@H]5[C@]6(O)C[C@H](O)[C@@]7(O)[C@@H](CN8C[C@@H](C)CC[C@H]8[C@@]7(C)O)[C@]6(O)C[C@@]53O[C@]24O)cc1OC [veratridine]
[6]; after application of SCS, four animals, from 11.8±2.5
  intrinsic cardiac neuronal activity with veratridine: 16.5±4.6 impulses/min
[6]; after completing the protocols, all 10 dogs, from 25.6±5.7
  intrinsic cardiac neuronal activity with veratridine: 40.6±12.5 impulses/min
[6]; before application of SCS, four animals
  intrinsic cardiac neuronal activity with veratridine: 40.5±26.7
[6]; after application of SCS, four animals, no significant difference
  enhancement of intrinsic cardiac neuronal activity: 39%
[6]; before application of SCS, four animals, P<0.05
  enhancement of intrinsic cardiac neuronal activity: 124%
[6]; epicardial veratridine, after completing the protocols (following SCS and regional ventricular ischaemia), all 10 dogs, P<0.05
  increase of intrinsic cardiac neuronal activity: 58%

## OC[C@@H](O)[C@H]1O[C@@H]2O[C@H](C(Cl)(Cl)Cl)O[C@@H]2[C@H]1O [alpha chloralose]
[6]; dog, in vivo, iv
  effect of each bolus on neuronal activity: suppressed neuronal activity for a few minutes

## nitroprusside
[1]
  neuronal response to epicardial application: responsive
